Data as given in US20220313780A1, “METHODS AND COMPOSITIONS FOR TREATING INFLAMMATORY CONDITIONS” (THE SCRIPPS RESEARCH INSTITUTE, priority 2019, published 2022).

Experiments:
[1] = test system: endothelial cells (EA.hy926); experiment: Transendothelial Electric Resistance (TER) assay of thrombin-induced endothelial barrier disruption; format: cell-based; conditions: peptide at 5 to 50 nM
Source text: The bottom curve in each panel of the figure is labeled as IIa for thrombin alone and represents the observed effects for thrombin (IIa) in the absence of peptide. In each panel, IIa was always present for each peptide added. The number in each panel indicates the concentration of each peptide for the respective curves. The peptide concentration of 0 is represented by the bottom curve labeled “IIa”. (A) the dose response inhibition over time of TER, expressed by Normalized Cell Index (NCI) by the PAR1 derived peptide P1(47-66) or TR47 using concentrations between 5 and 50 nM. (B) the dose response inhibition over time of NCI by the PAR3-derived peptide P3(42-65) or P3R using a 5 to 50 nM concentration range. (C) The NCI dose response inhibition over time by the short sequence PAR1-derived peptide P1(47-55) using a range of concentrations between 50 nM and 100 μM peptide. (D) The NCI dose response inhibition over time by the short sequence PAR3-derived peptide P3(42-54) using a range of concentrations between 1 μM and 200 μM peptide. (E) The NCI dose response inhibition over time by the hybrid peptide G10 in which the P1(47-55) peptide described in panel C was linked to a PAR3 peptide P3(51-65) by using 10 Gly residues. In this case the range of concentrations to study the dose response inhibition was between 3 and 50 nM peptide. An estimate for the percentage of activity for each peptide dilution in presence of thrombin can be quantified by obtaining the Area under the Curve (AUC) for each peptide dilution in comparison to the value for the AUC for thrombin alone in the absence of any peptide. These values were used to calculate the potency of each PAR peptide.
Transendothelial Electric Resistance (TER)-based assays were used to monitor the disruption of endothelial barrier integrity caused by thrombin. The anti-inflammatory, vasculoprotective actions of different PAR peptides for protecting against thrombin-induced vascular leakage on cultured endothelial cells (EA.hy926) were followed in real time using an iCELLigence machine (ACEA Biosciences Inc, San Diego, Calif.). EA.hy926 cells at a density of 10,000/well were pipetted into the wells of gold-plated microelectrode sensor (L8, Acea Biosciences). Subsequently, the increase of electrical resistance was monitored as cells grew and spread out on the microelectrodes to obtain confluence (reaching a plateau) over the TER plates connected to the recording instrument that detected in real time the changes in TER for each well. The effects of different PAR-derived peptides at the indicated concentrations were tested for dose-response inhibition of thrombin's effects when each of the peptide dilutions was added 30 min prior to the addition of thrombin (0.25 nM final in all wells). The percentage of inhibition was proportional to the increase in TER signal over time. Cell index values, reflecting TER signals, were normalized prior to addition of thrombin following manufacturer's directions.

IL-1β = IL-1β release (Quantikine ELISA) from THP1 cells treated with LPS and ATP; format: cell-based, human; conditions: APC 4 μg/mL, TR47 50 μM, P3R 50 μM or TR47/P3R 8 nM & 500 nM for 1 hour before LPS and ATP
Method: THP1 cells were plated at a final concentration of 1×10^6/mL in 96 well plates and incubated with PMA (0.5 μM) for 3 hours 37° C. in supplemented RPMI. Media was subsequently changed every 24 hours for 3 days. Selected wells were treated with APC (4 μg/mL), TR47 (50 μM), P3R (50 μM), or TR47/P3R (8 nM & 500 nM, respectively) for 1 hour, washed with DPBS, and incubated with LPS (1 μg/mL) for 3 hours at 37° C. in serum-free RPMI. Cells were washed with DPBS and incubated with ATP (5 mM) in the presence or absence of 10 μM YVAD (caspase 1 inhibitor) for 45 minutes, and the resulting cell supernatant was used in the IL-1(3 Quantikine ELISA following manufacturer's (R&D) directions measuring absorbance, and the concentration of IL-1(3 was calculated following measurement of the standard curve. Data points represent mean±SEM of at least 3 independent experiments. *P<0.05 (vs. LPS+ATP).
[…]. THP1 cells were plated at a final concentration of 1×10^6/mL in 96 well plates and incubated with PMA (0.5 μM) for 3 hours 37° C. in supplemented RPMI. […] Cell supernatants were carefully collected and frozen until assayed using the IL-1β Quantikine ELISA following the manufacturer's (R&D Systems) directions, measuring absorbance. The concentration of IL-1β was calculated following measurement of the standard curve according to the manufacturer's directions.

Row | Sequence | effect on thrombin-induced disruption of endothelial barrier [1] | generation and release of IL-1β (IL-1β)
1 | GAPPNSFEEFPFSALEGWTGATIT [P3R, PAR3-derived 24-mer peptide] | had no significant effect | significantly suppressed
2 | NPNDKYEPFWEDEEKNESGL [TR47, PAR1-derived 20 amino acid peptide] |  | significantly suppressed
